We go through six molecules from patent US12268660B2, “Oral pharmaceutical formulations of bitter compounds for pulmonary hypertension” (Aardvark Therapeutics Inc., priority 2018, dated 2025).

The test system of one data set is TAS2R subtypes. As to conditions: cited from earlier work.
The test system of data set [1] is human primary smooth muscle cells (PVSMC). As to conditions: endothelin-1 100 nM; for synergy in combination with SIN: bitter agent 1 mM with low SIN doses (10 μM).
Experimental: An in vitro model using human primary smooth muscle cells (PVSMC) were stimulated to contract with 100 nM endothelin-1, then treated with various test compounds alone and in combination with the PDE-5 inhibitor sildenafil, approved to treat PAH. The concentration used were 3-CQL at 1 mM, DB at 1 mM, DS at 1 mM and SIN (sildenafil) at 10 μM. The controls were 0.5% and 1% DMSO in media because DB is water-soluble but DS, 3-CQL and SIN are DMSO soluble.
The next data set concerns primary pulmonary SMCs. The data set is described as follows: Second experiment: primary pulmonary SMCs induced to contract with 10 μM phenylephernine (PE). It is filed as cell-based. The following applies: PE 10 μM; for synergy in combination with SIN: bitter agent with low SIN doses. The protocol: In a second experiment, primary pulmonary SMCs were induced to contract using 10 μM phenylephernine (PE). PE was added after a baseline reading. The test compounds were added after a second timepoint and 800-1300 cells were assayed per trace, starting with FIG. 6.

Data set [2] in a line: Solubility of test compounds (choice of control media). As to conditions: water or DMSO.
The conditions of data set [3]: cited from earlier work.
Setting [4] is: SIN by itself at low doses (10 μM).

Counter-ions that a name gives are not always drawn. Like-named read-outs stand apart in the source and are kept apart here.

For the molecule `CC[N+](CC)(CC(=O)Nc1c(C)cccc1C)Cc1ccccc1.O=C([O-])c1ccccc1` [DB, Denatonium Benzoate], in the data set with TAS2R subtypes, the “TAS2R subtypes activated (number)” value is listed as 8. Besides, the “potency in reversal from peak contraction of the PVSMCs” value in data set [1] (DB alone (1 mM)) is “not potent”. Moreover, the “synergy in combination with SIN” value (in data set [1]; in the data set with primary pulmonary SMCs) was “synergy” in each case.

For the molecule quinine [reference compound], the “TAS2R subtypes activated (number)” value in the data set with TAS2R subtypes is 9.

For `CCCc1nn(C)c2c(=O)[nH]c(-c3cc(S(=O)(=O)N4CCN(C)CC4)ccc3OCC)nc12` [SIN, sildenafil, reference compound], the entries for the “efficacy in reversal from peak contraction of the PVSMCs” value in data set [1] (SIN at 100 μM) and in data set [1] (setting [4]) were “extremely effective” and “not effective”, respectively. The “in vitro efficacy against PE-induced contraction” value is given as “extremely effective” with primary pulmonary SMCs (SIN at 100 μM) and “not effective” in the data set with primary pulmonary SMCs (setting [4]). Also, the solubility entry in data set [2] was “DMSO soluble”.

With `CN1CCc2cccc3c2[C@H]1Cc1ccc(O)c(O)c1-3` [Apomorphine, 5,6,6a,7-Tetrahydro-6-methyl-4H-dibenzo[de,g]quinoline-10,11-diol hydrochloride], the oral availability in data set [3] is given as roughly 4%.

As for `O=C(/C=C/c1ccc(O)c(O)c1)O[C@@H]1C[C@]2(O)C[C@@H](OC2=O)[C@@H]1O` [3-CQL, 3-caffeoylquinic-1,5-lactone], the results for the “synergy in combination with SIN” value (in data set [1]; in the data set with primary pulmonary SMCs) were “synergy” and “possibly”, respectively. For the same molecule, the solubility entry in data set [2] is “DMSO soluble”.

As to `CC[N+](CC)(CC(=O)Nc1c(C)cccc1C)Cc1ccccc1` [DS, Denatonium Saccharide], the “synergy in combination with SIN” value (in data set [1]; with primary pulmonary SMCs) was “synergy” throughout.
